This note sets out measurements from patent US10710994B2, “Oxadiazole transient receptor potential channel inhibitors” (Genentech, Inc., priority 2018, dated 2020).

The target in this test is human TRPA1 channel (Homo sapiens (Human), UniProt O75762). Kind of test: hTRPA1 CHO Ca2+ FLIPR Tetra assay: block of cinnamaldehyde induced calcium influx. Format: cell-based. Conditions: CHO cells expressing TRPA1, Hill coefficient fixed to 1.5. Put shortly: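 TRPA1-expressing CHO cells loaded with calcium indicator dye (1 h 37° C, then 15 min room temperature) in HBSS/20 mM HEPES pH 7.4/0.02% BSA. IC50 from fits with fixed Hill coefficient.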

The mark [1] stands for this setting: read-out: hTRPA1 IC50 90 min, 90 minutes incubation with compound before cinnamaldehyde (about EC80).

Structures are written as SMILES. Where two headings read alike, the source gives them in different places.

Chain of human TRPA1 channel (O75762 whole entry): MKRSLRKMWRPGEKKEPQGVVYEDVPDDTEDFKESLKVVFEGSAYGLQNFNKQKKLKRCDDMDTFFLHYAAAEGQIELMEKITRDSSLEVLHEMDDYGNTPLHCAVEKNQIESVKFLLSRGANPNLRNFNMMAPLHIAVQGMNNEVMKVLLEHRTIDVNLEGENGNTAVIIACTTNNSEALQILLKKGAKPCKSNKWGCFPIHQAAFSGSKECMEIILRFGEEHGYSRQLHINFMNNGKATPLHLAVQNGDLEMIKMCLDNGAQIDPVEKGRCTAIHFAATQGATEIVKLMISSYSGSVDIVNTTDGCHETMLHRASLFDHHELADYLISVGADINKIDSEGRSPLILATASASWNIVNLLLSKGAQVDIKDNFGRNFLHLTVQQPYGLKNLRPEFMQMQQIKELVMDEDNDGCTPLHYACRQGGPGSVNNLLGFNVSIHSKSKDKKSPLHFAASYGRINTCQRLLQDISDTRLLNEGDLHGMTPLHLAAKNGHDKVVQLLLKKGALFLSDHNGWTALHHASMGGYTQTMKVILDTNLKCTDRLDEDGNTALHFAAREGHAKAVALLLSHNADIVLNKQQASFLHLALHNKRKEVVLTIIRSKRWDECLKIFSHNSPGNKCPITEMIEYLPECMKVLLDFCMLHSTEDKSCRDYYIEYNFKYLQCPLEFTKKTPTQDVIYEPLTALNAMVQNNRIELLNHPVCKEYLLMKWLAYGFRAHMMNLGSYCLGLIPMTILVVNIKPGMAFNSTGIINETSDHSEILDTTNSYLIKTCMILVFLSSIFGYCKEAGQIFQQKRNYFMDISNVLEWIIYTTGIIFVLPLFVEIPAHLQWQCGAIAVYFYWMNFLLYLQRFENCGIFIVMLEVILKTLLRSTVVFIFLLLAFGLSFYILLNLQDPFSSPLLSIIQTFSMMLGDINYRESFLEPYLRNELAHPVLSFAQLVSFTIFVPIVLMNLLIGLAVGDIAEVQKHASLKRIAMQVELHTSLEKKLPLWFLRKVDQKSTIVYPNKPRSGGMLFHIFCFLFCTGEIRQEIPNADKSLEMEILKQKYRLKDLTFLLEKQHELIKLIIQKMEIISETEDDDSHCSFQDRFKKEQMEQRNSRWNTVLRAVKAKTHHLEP

Usually IC50 stands for the concentration at which inhibition is half-maximal. With `Cn1cnc2nc(N)n(Cc3nc([C@@H]4CO[C@@H](c5ccc(S(F)(F)(F)(F)F)cc5)C4)no3)c(=O)c21` [Example 74, 2-amino-7-methyl-1-((3-((3R,5R)-5-(4-(pentafluoro-16-sulfanyl)phenyl)tetrahydrofuran-3-yl)-1,2,4-oxadiazol-5-yl)methyl)-1,7-dihydro-6H-purin-6-one], the IC50 is, setting by setting: (read-out: hTRPA1 IC50 10 min, 10 minutes incubation with compound before cinnamaldehyde (about EC80)) 170 nM; under setting [1], 120 nM.

On to `Cc1ncn2ncn(Cc3nc([C@@H]4CO[C@@H](c5ccc(F)cc5)C4)no3)c(=O)c12` [Example 75, 3-((3-((3R,5R)-5-(4-fluorophenyl)tetrahydro-furan-3-yl)-1,2,4-oxadiazol-5-yl)methyl)-5-methylimidazo[5,1-f][1,2,4]triazin-4(3H)-one], for which the IC50 under setting [1] amounted to 25 nM. The same measure, in the same setting: in the case of `Cn1c(C(F)F)nc2ncn(Cc3nc([C@@H]4CO[C@@H](c5ccc(Cl)cc5)C4)no3)c(=O)c21` [Example 76, 1-((3-((3R,5R)-5-(4-chlorophenyl)tetrahydro-furan-3-yl)-1,2,4-oxadiazol-5-yl)methyl)-8-(difluoro-methyl)-7-methyl-1,7-dihydro-6H-purin-6-one] it was 11 nM; in that of `NC(=O)c1ccc2c(=O)n(Cc3nc([C@@H]4CO[C@@H](c5ccc(Cl)cc5)C4)no3)cnc2n1` [Example 77, 3-((3-((3R,5R)-5-(4-chlorophenyl)tetrahydro-furan-3-yl)-1,2,4-oxadiazol-5-yl)methyl)-4-oxo-3,4-dihydropyrido[2,3-d] pyrimidine-7-carboxamide], 66 nM; in that of `Cc1nc(NC2CCN(C)CC2)n2ncn(Cc3nc([C@@H]4CO[C@@H](c5ccc(Cl)cc5)C4)no3)c(=O)c12` [Example 78, 3-((3-((3R,5R)-5-(4-chlorophenyl)tetrahydro-furan-3-yl)-1,2,4-oxadiazol-5-yl)methyl)-5-methyl-7-((1-methylpiperidin-4-yl)amino)imidazo[5,1-f] [1,2,4]triazin-4(3H)-one], 150 nM.

In the case of `Cc1nc(NC2CNC2)n2ncn(Cc3nc([C@@H]4CO[C@@H](c5ccc(Cl)cc5)C4)no3)c(=O)c12` [Example 79], the IC50 under setting [1] stood at 92 nM.

Regarding `Cc1nc(N2CC(CN)C2)n2ncn(Cc3nc([C@@H]4CO[C@@H](c5ccc(Cl)cc5)C4)no3)c(=O)c12` [Example 80, 7-(3-(aminomethyl)azetidin-1-yl)-3-((3-((3R,5R)-5-(4-chlorophenyl)tetrahydro-furan-3-yl)-1,2,4-oxadiazol-5-yl)methyl)-5-methylimidazo[5,1-f] [1,2,4]triazin-4(3H)-one], the IC50 under setting [1] was 180 nM.

As to `Cc1nc(N)n2ncn(Cc3nc([C@@H]4CO[C@@H](c5ccc(F)cc5)C4)no3)c(=O)c12` [Example 81, 7-amino-3-((3-((3R,5R)-5-(4-fluorophenyl)tetrahydro-furan-3-yl)-1,2,4-oxadiazol-5-yl)methyl)-5-methyl-imidazo[5,1-f][1,2,4]triazin-4(3H)-one], the IC50 under setting [1] is 75 nM.

Turning to `O=c1c2cccc(=O)n2cnn1Cc1nc([C@@H]2CO[C@@H](c3ccc(Cl)cc3)C2)no1` [Example 82, 2-((3-((3R,5R)-5-(4-chlorophenyl)tetrahydro-furan-3-yl)-1,2,4-oxadiazol-5-yl)methyl)-2H-pyrido [1,2-d][1,2,4]triazine-1,6-dione], the IC50 under setting [1] was 2.4 nM. For the compound `Cn1cnc2ncn(Cc3nc([C@@H]4CO[C@@H](c5cc(F)c(Cl)c(F)c5)C4)no3)c(=O)c21` [Example 83, 1-((3-((3R,5R)-5-(4-chloro-3,5-difluorophenyl)tetrahydrofuran-3-yl)-1,2,4-oxadiazol-5-yl)methyl)-7-methyl-1,7-dihydro-6H-purin-6-one], the 50% inhibitory concentration (IC50) was 47.4 nM (hTRPA1 IC50 10 min, 10 minutes incubation with compound before cinnamaldehyde (about EC80)) and 13 nM (hTRPA1 IC50 90 min, 90 minutes incubation with compound before cinnamaldehyde (about EC80)).
